# ChEMBL document CHEMBL1158512, “The antimicrobial activity of compounds from the leaf and stem of Vitis amurensis against two oral pathogens” (2010)
# Activity calls are given as the source filed them. No cut-off for these calls is given here.
# Key:
# Format in all cases: functional
# Streptococcus mutans [1] = assay: Antimicrobial activity against Streptococcus mutans KCTC 3065 at 50 ug/ml after 20 hrs by disk diffusion method; conditions: for zone of inhibition at 50 µg/mL: KCTC 3065, 20 h, read-out: IZ
# Streptococcus mutans [2] = assay: Antimicrobial activity against Streptococcus mutans KCTC 3065 at 100 ug/ml after 20 hrs by disk diffusion method; conditions: for zone of inhibition at 100 µg/mL: KCTC 3065, 20 h, read-out: IZ
# Streptococcus mutans [3] = assay: Antimicrobial activity against Streptococcus mutans KCTC 3065 at 200 ug/ml after 20 hrs by disk diffusion method; conditions: for zone of inhibition at 200 µg/mL: KCTC 3065, 20 h, read-out: IZ
# Streptococcus mutans [4] = assay: Antimicrobial activity against Streptococcus mutans KCTC 3065 at 400 ug/ml after 20 hrs by disk diffusion method; conditions: for zone of inhibition at 400 µg/mL: KCTC 3065, 20 h, read-out: IZ
# Streptococcus mutans [5] = assay: Antimicrobial activity against Streptococcus mutans KCTC 3065 at 600 ug/ml after 20 hrs by disk diffusion method; conditions: for zone of inhibition at 600 µg/mL: KCTC 3065, 20 h, read-out: IZ
# Streptococcus sanguinis [6] = assay: Antimicrobial activity against Streptococcus sanguinis NCTC 9811 at 50 ug/ml after 20 hrs by disk diffusion method; conditions: for zone of inhibition at 50 µg/mL: NCTC 9811, 20 h, read-out: IZ
# Streptococcus sanguinis [7] = assay: Antimicrobial activity against Streptococcus sanguinis NCTC 9811 at 100 ug/ml after 20 hrs by disk diffusion method; conditions: for zone of inhibition at 100 µg/mL: NCTC 9811, 20 h, read-out: IZ
# Streptococcus sanguinis [8] = assay: Antimicrobial activity against Streptococcus sanguinis NCTC 9811 at 200 ug/ml after 20 hrs by disk diffusion method; conditions: for zone of inhibition at 200 µg/mL: NCTC 9811, 20 h, read-out: IZ
# Streptococcus sanguinis [9] = assay: Antimicrobial activity against Streptococcus sanguinis NCTC 9811 at 400 ug/ml after 20 hrs by disk diffusion method; conditions: for zone of inhibition at 400 µg/mL: NCTC 9811, 20 h, read-out: IZ
# Streptococcus sanguinis [10] = assay: Antimicrobial activity against Streptococcus sanguinis NCTC 9811 at 600 ug/ml after 20 hrs by disk diffusion method; conditions: for zone of inhibition at 600 µg/mL: NCTC 9811, 20 h, read-out: IZ
# Streptococcus mutans [11] = assay: Antimicrobial activity against Streptococcus mutans KCTC 3065 assessed as total bacterial adherence inhibition
# Streptococcus sanguinis [12] = assay: Antimicrobial activity against Streptococcus sanguinis NCTC 9811 assessed as total bacterial adherence inhibition
# Streptococcus mutans [13] = assay: Antimicrobial activity against Streptococcus mutans KCTC 3065 after 20 hrs by plate dilution method; conditions: KCTC 3065, 20 h
# Streptococcus sanguinis [14] = assay: Antimicrobial activity against Streptococcus sanguinis NCTC 9811 after 20 hrs by plate dilution method; conditions: NCTC 9811, 20 h
SMILES,MIC (Streptococcus mutans [13]),MIC (Streptococcus sanguinis [14]),zone of inhibition at 50 µg/mL (Streptococcus mutans [1]),zone of inhibition at 100 µg/mL (Streptococcus mutans [2]),zone of inhibition at 200 µg/mL (Streptococcus mutans [3]),zone of inhibition at 400 µg/mL (Streptococcus mutans [4]),zone of inhibition at 600 µg/mL (Streptococcus mutans [5]),zone of inhibition at 50 µg/mL (Streptococcus sanguinis [6]),zone of inhibition at 100 µg/mL (Streptococcus sanguinis [7]),zone of inhibition at 200 µg/mL (Streptococcus sanguinis [8]),zone of inhibition at 400 µg/mL (Streptococcus sanguinis [9]),zone of inhibition at 600 µg/mL (Streptococcus sanguinis [10]),Concentration for total adherence inhibition (Streptococcus mutans [11]),Activity (Streptococcus sanguinis [12]),MBC (Streptococcus mutans [13]),MBC (Streptococcus sanguinis [14]),inhibition zone (IZ) (Streptococcus mutans [1]),inhibition zone (IZ) (Streptococcus sanguinis [6]),inhibition zone (IZ) (Streptococcus sanguinis [7]),further results
Oc1ccc(/C=C/c2cc(O)cc(O)c2)cc1 [RESVERATROL],50 µg/mL,25 µg/mL,< 11 mm,< 15 mm,20 mm,20 mm,> 20 mm,< 11 mm,< 11 mm,< 15 mm,< 15 mm,20 mm,25 µg/mL,100 µg/mL,50 µg/mL,100 µg/mL,–,–,–,–
OC[C@H]1OC(Oc2cc(O)cc(/C=C/c3ccc(O)cc3)c2)[C@H](O)[C@@H](O)[C@@H]1O (stereo not given in full),–,–,–,–,–,–,–,–,–,–,–,–,–,–,–,–,inactive,inactive,inactive,inhibition zone (IZ) (Streptococcus mutans [2]): inactive; inhibition zone (IZ) (Streptococcus mutans [3]): inactive; inhibition zone (IZ) (Streptococcus mutans [4]): inactive; inhibition zone (IZ) (Streptococcus mutans [5]): inactive; inhibition zone (IZ) (Streptococcus sanguinis [8]): inactive; inhibition zone (IZ) (Streptococcus sanguinis [9]): inactive; inhibition zone (IZ) (Streptococcus sanguinis [10]): inactive
Oc1cc(O)cc(/C=C/c2ccc(O)c(O)c2)c1 [PICEATANNOL],50 µg/mL,50 µg/mL,< 15 mm,< 15 mm,20 mm,> 20 mm,> 20 mm,< 15 mm,< 15 mm,20 mm,> 20 mm,> 20 mm,50 µg/mL,50 µg/mL,100 µg/mL,100 µg/mL,–,–,–,–
CC[C@H]1OC(=O)[C@H](C)[C@@H](O[C@H]2C[C@@](C)(OC)[C@@H](O)[C@H](C)O2)[C@H](C)[C@@H](O[C@@H]2O[C@H](C)C[C@H](N(C)C)[C@H]2O)[C@](C)(O)C[C@@H](C)C(=O)[C@H](C)[C@@H](O)[C@]1(C)O [ERYTHROMYCIN],–,12.5 µg/mL,–,–,–,–,–,–,–,–,–,–,0.78 µg/mL,25 µg/mL,< 1.5 µg/mL,50 µg/mL,–,–,–,–
OC[C@H]1O[C@@H](Oc2cc(O)cc(/C=C/c3ccc(O)c(O)c3)c2)[C@H](O)[C@@H](O)[C@@H]1O,–,–,–,–,–,–,–,–,–,–,–,–,–,–,–,–,inactive,inactive,inactive,inhibition zone (IZ) (Streptococcus mutans [2]): inactive; inhibition zone (IZ) (Streptococcus mutans [3]): inactive; inhibition zone (IZ) (Streptococcus mutans [4]): inactive; inhibition zone (IZ) (Streptococcus mutans [5]): inactive; inhibition zone (IZ) (Streptococcus sanguinis [8]): inactive; inhibition zone (IZ) (Streptococcus sanguinis [9]): inactive; inhibition zone (IZ) (Streptococcus sanguinis [10]): inactive

# Continued, in another order:
MIC (Streptococcus mutans [13]),MIC (Streptococcus sanguinis [14]),SMILES,zone of inhibition at 50 µg/mL (Streptococcus mutans [1]),zone of inhibition at 100 µg/mL (Streptococcus mutans [2]),zone of inhibition at 200 µg/mL (Streptococcus mutans [3]),zone of inhibition at 400 µg/mL (Streptococcus mutans [4]),zone of inhibition at 600 µg/mL (Streptococcus mutans [5]),zone of inhibition at 50 µg/mL (Streptococcus sanguinis [6]),zone of inhibition at 100 µg/mL (Streptococcus sanguinis [7]),zone of inhibition at 200 µg/mL (Streptococcus sanguinis [8]),zone of inhibition at 400 µg/mL (Streptococcus sanguinis [9]),zone of inhibition at 600 µg/mL (Streptococcus sanguinis [10]),Concentration for total adherence inhibition (Streptococcus mutans [11]),Activity (Streptococcus sanguinis [12]),MBC (Streptococcus mutans [13]),MBC (Streptococcus sanguinis [14]),inhibition zone (IZ) (Streptococcus mutans [1]),inhibition zone (IZ) (Streptococcus sanguinis [6]),inhibition zone (IZ) (Streptococcus sanguinis [7]),further results
50 µg/mL,12.5 µg/mL,Oc1ccc([C@H]2c3c(O)cc(O)cc3[C@H]3c4c(cc(O)c5c4[C@H]2[C@@H](c2ccc(O)cc2)[C@@H]5c2cc(O)cc(O)c2)O[C@@H]3c2ccc(O)cc2)cc1 [AMURESIN G],–,< 11 mm,< 11 mm,< 15 mm,< 15 mm,< 11 mm,< 15 mm,< 15 mm,< 15 mm,< 15 mm,25 µg/mL,50 µg/mL,50 µg/mL,100 µg/mL,inactive,–,–,–
25 µg/mL,12.5 µg/mL,Oc1ccc(/C=C/c2cc(O)cc3c2[C@H](c2cc(O)cc(O)c2)[C@@H](c2ccc(O)cc2)O3)cc1,< 15 mm,< 15 mm,20 mm,> 20 mm,> 20 mm,< 15 mm,20 mm,20 mm,20 mm,20 mm,25 µg/mL,50 µg/mL,50 µg/mL,50 µg/mL,–,–,–,–
100 µg/mL,> 400 µg/mL,Oc1ccc(C2[C@H]3c4cc(O)cc(O)c4[C@@H](c4ccc(O)cc4)[C@@H]2c2cc(O)cc(O)c23)cc1 (stereo not given in full),–,< 11 mm,< 15 mm,< 15 mm,20 mm,–,–,< 11 mm,< 15 mm,< 15 mm,100 µg/mL,>200 µg/mL,200 µg/mL,> 400 µg/mL,inactive,inactive,inactive,–
